From PMC6934184, “Selective DNA-PKcs inhibition extends the therapeutic index of localized radiotherapy and chemotherapy” (The Journal of Clinical Investigation, 2019)

Biological target: T1, DDR2 N456S (Homo sapiens, UniProt Q16832, N456S)
T1 construct: purchased Thermo Fisher Scientific (Life Technologies) SelectScreen
Assay: SelectScreen LanthaScreen
Assay type: binding
Settings: read-out: % displacement
Method in brief: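 Percent values come from Thermo SelectScreen profiling of NU5455, combining activity and binding assays. CSF1R was run in Z'LYTE format at Km app ATP, and CAMK1 in Adapta format with ATP listed at 10.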

T1 sequence (Q16832 22-855 N456S): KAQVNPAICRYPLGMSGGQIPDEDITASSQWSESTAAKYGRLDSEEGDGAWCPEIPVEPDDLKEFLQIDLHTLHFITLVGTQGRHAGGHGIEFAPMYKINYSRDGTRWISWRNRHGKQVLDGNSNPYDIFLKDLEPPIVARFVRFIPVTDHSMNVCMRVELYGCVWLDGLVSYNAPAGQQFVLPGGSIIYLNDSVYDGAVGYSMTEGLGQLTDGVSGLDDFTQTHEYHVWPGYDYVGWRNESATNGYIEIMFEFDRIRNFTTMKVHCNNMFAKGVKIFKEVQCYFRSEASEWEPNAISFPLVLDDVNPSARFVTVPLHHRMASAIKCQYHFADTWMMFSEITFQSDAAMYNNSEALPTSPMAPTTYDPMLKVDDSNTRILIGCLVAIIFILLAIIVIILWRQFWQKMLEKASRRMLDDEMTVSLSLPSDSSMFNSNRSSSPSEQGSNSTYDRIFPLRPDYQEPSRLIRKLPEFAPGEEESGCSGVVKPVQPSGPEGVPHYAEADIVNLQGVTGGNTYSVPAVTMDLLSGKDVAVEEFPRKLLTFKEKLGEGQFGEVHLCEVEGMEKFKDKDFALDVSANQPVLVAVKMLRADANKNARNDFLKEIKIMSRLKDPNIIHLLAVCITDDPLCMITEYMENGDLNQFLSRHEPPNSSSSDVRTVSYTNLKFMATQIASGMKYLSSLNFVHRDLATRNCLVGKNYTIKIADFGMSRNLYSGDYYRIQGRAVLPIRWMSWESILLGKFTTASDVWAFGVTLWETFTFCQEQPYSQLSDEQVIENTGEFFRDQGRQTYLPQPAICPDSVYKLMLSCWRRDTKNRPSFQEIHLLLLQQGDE

Compound: CN(C(=O)CN1CCOCC1)c1ccc2sc3c(-c4cccc5c(=O)cc(N6CC7CCC(C6)O7)oc45)cccc3c2c1 [NU5455]
- inhibition at 1 µM: 0.5%
